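Step 1: Grow cells in 96-well plates. Step 2: Expose to compound for 48 hours at 5 concentrations. Step 3: Interpolate endpoints linearly; if unreached, use highest concentration. GI50: concentration for 50% inhibition of growth. TGI marks complete inhibition of growth.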
Columns and labels:
Test in all cases: NCI tumour cell line growth inhibition, 48 h
[1] = test system: OVCAR-8 ovarian
[2] = test system: SN12C renal
[3] = test system: NCI/ADR-RES ovarian
[4] = test system: UACC-62 melanoma
[5] = test system: 786-0 renal
[6] = test system: MDA-MB-231 breast
[7] = test system: OVCAR-5 ovarian
[8] = test system: CAKI-1 renal
[9] = test system: HOP-92 NSCLC
[10] = test system: PC-3 prostate
[11] = test system: BT-549 breast
[12] = test system: MCF7 breast
[13] = test system: SR leukemia
[14] = test system: MALME-3M melanoma
[15] = test system: EKVX NSCLC
[16] = test system: HCT-116 colon
[17] = test system: HL-60(TB) leukemia
[18] = test system: SK-OV-3 ovarian
[19] = test system: LOX IMVI melanoma
[20] = test system: ACHN renal
[21] = test system: SW-620 colon
[22] = test system: OVCAR-3 ovarian
[23] = test system: COLO 205 colon
[24] = test system: DU-145 prostate
[25] = test system: RXF 393 renal
[26] = test system: SK-MEL-5 melanoma
[27] = test system: M14 melanoma
[28] = test system: NCI-H23 lung
[29] = test system: SF-295 CNS
[30] = test system: RPMI-8226 leukemia
[31] = test system: U251 CNS
[32] = test system: TK-10 renal
[33] = test system: MOLT-4 leukemia
[34] = test system: SK-MEL-2 melanoma
[35] = test system: OVCAR-4 ovarian
[36] = test system: SF-268 CNS
[37] = test system: CCRF-CEM leukemia
[38] = test system: K-562 leukemia
[39] = test system: UO-31 renal
[40] = test system: KM12 colon
[41] = test system: UACC-257 melanoma
[42] = test system: NCI-H226 lung
[43] = test system: NCI-H460 lung
[44] = test system: SNB-19 CNS
[45] = test system: HOP-62 NSCLC
[46] = test system: A549 NSCLC
[47] = test system: HT29 colon
[48] = test system: HCT-15 colon
[49] = test system: SF-539 CNS
[50] = test system: HCC-2998 colon
[51] = test system: SNB-75 CNS
[52] = test system: HS 578T breast
[53] = test system: SK-MEL-28 melanoma
[54] = test system: A498 renal
[55] = test system: T-47D breast
[56] = test system: IGROV1 ovarian
[57] = test system: MDA-MB-435
[58] = test system: NCI-H522 lung

CC(C)(C)Nc1nc2c(OCCc3ccccc3)cccn2c1-c1cccc(F)c1
GI50 [1]: 9.39 µM | TGI [1]: > 100 µM | GI50 [2]: 3.99 µM | TGI [2]: > 100 µM | GI50 [3]: 4.25 µM | TGI [3]: > 100 µM | GI50 [4]: 2.92 µM | TGI [4]: 12.2 µM | GI50 [5]: 13.5 µM | TGI [5]: 52.8 µM | GI50 [6]: 10.2 µM | TGI [6]: 26.2 µM | GI50 [7]: 8.58 µM | TGI [7]: > 100 µM | GI50 [8]: 5.22 µM | TGI [8]: > 100 µM | GI50 [9]: 3.3 µM | TGI [9]: > 100 µM | GI50 [10]: 4.91 µM | TGI [10]: > 100 µM | GI50 [11]: 10.3 µM | TGI [11]: 36.3 µM | GI50 [12]: 4.34 µM | TGI [12]: 32.4 µM | GI50 [13]: 4.48 µM | TGI [13]: > 100 µM | GI50 [14]: 3.6 µM | TGI [14]: 22.8 µM | GI50 [15]: 3.44 µM | TGI [15]: > 100 µM | GI50 [16]: 4.12 µM | TGI [16]: 36 µM | GI50 [17]: 3.78 µM | TGI [17]: 18.8 µM | GI50 [18]: 19.9 µM | TGI [18]: > 100 µM | GI50 [19]: 5.02 µM | TGI [19]: 17 µM | GI50 [20]: 4.63 µM | TGI [20]: > 100 µM | GI50 [21]: 11.3 µM | TGI [21]: 87.1 µM | GI50 [22]: 3.91 µM | TGI [22]: 39 µM | GI50 [23]: 8.88 µM | TGI [23]: 26.8 µM | GI50 [24]: 9.13 µM | TGI [24]: > 100 µM | GI50 [25]: 8.78 µM | TGI [25]: 29.2 µM | GI50 [26]: 5.26 µM | TGI [26]: 17.7 µM | GI50 [27]: 6.79 µM | TGI [27]: 32.1 µM | GI50 [28]: 4.13 µM | TGI [28]: 34.8 µM | GI50 [29]: 4.41 µM | TGI [29]: 22 µM | GI50 [30]: 3.7 µM | TGI [30]: 62.1 µM | GI50 [31]: 6.19 µM | TGI [31]: 25.2 µM | GI50 [32]: 14.2 µM | TGI [32]: > 100 µM | GI50 [33]: 3.22 µM | TGI [33]: > 100 µM | GI50 [34]: 3.11 µM | TGI [34]: 12.4 µM | GI50 [35]: 4.52 µM | TGI [35]: > 100 µM | GI50 [36]: 7.84 µM | TGI [36]: > 100 µM | GI50 [37]: 6.53 µM | TGI [37]: > 100 µM | GI50 [38]: 3.49 µM | TGI [38]: > 100 µM | GI50 [39]: 2.75 µM | TGI [39]: 19.7 µM | GI50 [40]: 4.13 µM | TGI [40]: > 100 µM | GI50 [41]: 7.56 µM | TGI [41]: > 100 µM | GI50 [42]: 6.29 µM | TGI [42]: 63 µM | GI50 [43]: 5.5 µM | TGI [43]: 24.8 µM | GI50 [44]: 5.81 µM | TGI [44]: > 100 µM | GI50 [45]: 11.8 µM | TGI [45]: 42 µM | GI50 [46]: 4.4 µM | TGI [46]: > 100 µM | GI50 [47]: 5.02 µM | TGI [47]: 24 µM | GI50 [48]: 3.51 µM | TGI [48]: 14.2 µM | GI50 [49]: 10.1 µM | TGI [49]: 23.1 µM | GI50 [50]: 4.81 µM | TGI [50]: 69.6 µM | GI50 [51]: 16.1 µM | TGI [51]: > 100 µM | GI50 [52]: 10.1 µM | TGI [52]: 64.2 µM | GI50 [53]: 3.93 µM | TGI [53]: 74.6 µM | GI50 [54]: 15.8 µM | TGI [54]: 65.1 µM | GI50 [55]: 3.55 µM | TGI [55]: > 100 µM | GI50 [56]: 8.99 µM | TGI [56]: > 100 µM | GI50 [57]: 5.07 µM | TGI [57]: 27.4 µM | GI50 [58]: 4.17 µM | TGI [58]: 42.3 µM
